Reference: US8114875B2, “Substituted N-heterocyclic compounds and their use as dopamine D3 receptor ligands” (Abbott GmbH & Co. KG, priority 2004, dated 2012)

Tests used:
[1] = target: T1, human dopamine D3 receptors (Homo sapiens, UniProt P35462); assay: Dopamine D3 receptor binding, displacement of [125I]-iodosulpride; settings: membranes from HEK-293 cells with stably expressed human D3 receptors; 0.1 nM [125I]-iodosulpride; 25° C., 60 minutes
T1 construct: expressed in transfected cells; host or cells: HEK-293
Method: (§1) The substance to be tested was dissolved either in methanol/Chremophor® (BASFAG) or in dimethyl sulfoxide and then diluted with water to the desired concentration.
The mixture (0.250 ml) was composed of membranes from ˜106 HEK-293 cells with stably expressed human dopamine D3 receptors, 0.1 nM [^125I]-iodosulpride and incubation buffer (total binding) or with additional test substance (inhibition plot) or 1 μM spiperone (nonspecific binding). Triplicate mixtures were carried out.
The incubation buffer contained 50 mM Tris, 120 mM NaCl, 5 mM KCl, 2 mM CaCl2, 2 mM MgCl2 and 0.1% bovine serum albumin, 10 μM quinolone, 0.1% ascorbic acid (prepared fresh each day). The buffer was adjusted to pH 7.4 with HCl.
(§2) Measurement and Evaluation:
(§3) After incubation at 25° C. for 60 minutes, the mixtures were filtered under vacuum through Whatman GF/B glass fiber filters using a cell harvester. The filters were transferred by a filter transfer system into scintillation vials. After addition of 4 ml of Ultima Gold® (Packard), the samples were shaken for one hour and then the radioactivity was counted in a beta counter (Packard, Tricarb 2000 or 2200CA). The cp values were converted into dpm by means of a standard quench series with the aid of the instrument's own program.
(§4) Evaluation of the inhibition plots took place by iterative nonlinear regression analysis using the Statistical Analysis System (SAS) similar to the “LIGAND” program described by Munson and Rodbard.

[2] = target: T2, human dopamine D2L receptors (long isoform) (Homo sapiens, UniProt P14416); assay: Dopamine D2L receptor binding, displacement of [125I]-iodospiperone; settings: ratio of Ki values from D3 and D2L binding assays, HEK-293 membranes
T2 construct: expressed in transfected cells; host or cells: HEK-293
Method: as §1
The mixture (1 ml) was composed of membranes from ˜10^6 HEK-293 cells with stably expressed human dopamine D2L receptors (long isoform) and 0.01 nM [^1251]-iodospiperone and incubation buffer (total binding) or with additional test substance (inhibition plot) or 1 μM haloperidol (nonspecific binding). Triplicate mixtures were carried out.
The incubation buffer contained 50 mM Tris, 120 mM NaCl, 5 mM KCl, 2 mM CaCl2, 2 mM MgCl2 and 0.1% bovine serum albumin. The buffer was adjusted to pH 7.4 with HCl.
as §2, §3, §4

T2 sequence (P14416 whole entry, canonical isoform): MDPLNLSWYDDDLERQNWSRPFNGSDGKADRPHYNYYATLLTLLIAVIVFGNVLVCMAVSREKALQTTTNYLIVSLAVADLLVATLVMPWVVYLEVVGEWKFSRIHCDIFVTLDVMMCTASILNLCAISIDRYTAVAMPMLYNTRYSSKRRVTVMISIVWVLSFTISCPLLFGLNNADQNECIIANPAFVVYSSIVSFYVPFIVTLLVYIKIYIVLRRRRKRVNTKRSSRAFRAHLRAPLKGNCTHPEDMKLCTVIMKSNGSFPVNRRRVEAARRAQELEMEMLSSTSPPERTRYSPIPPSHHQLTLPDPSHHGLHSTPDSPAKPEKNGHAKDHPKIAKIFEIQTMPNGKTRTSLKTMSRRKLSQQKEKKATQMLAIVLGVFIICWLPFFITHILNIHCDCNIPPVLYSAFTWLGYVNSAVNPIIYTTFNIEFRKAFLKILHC
T1 sequence (P35462 whole entry): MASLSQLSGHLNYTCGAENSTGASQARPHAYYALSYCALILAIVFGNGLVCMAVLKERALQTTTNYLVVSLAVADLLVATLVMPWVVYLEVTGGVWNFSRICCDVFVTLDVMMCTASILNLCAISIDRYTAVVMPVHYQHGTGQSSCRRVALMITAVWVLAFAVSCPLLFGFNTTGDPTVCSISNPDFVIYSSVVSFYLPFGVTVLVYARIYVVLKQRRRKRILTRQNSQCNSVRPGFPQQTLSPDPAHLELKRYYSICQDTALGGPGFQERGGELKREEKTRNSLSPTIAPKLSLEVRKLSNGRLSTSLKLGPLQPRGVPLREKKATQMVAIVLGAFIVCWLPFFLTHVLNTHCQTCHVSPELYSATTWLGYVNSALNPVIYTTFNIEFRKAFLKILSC

| Structure (SMILES) | Ki [1] [nM] | Selectivity D3 vs. D2L (footnote: Ki(D2L)/Ki(D3)) [2] |
| --- | --- | --- |
| O=c1nc(-c2ccccc2)ccn1CCCCN1CCN(Cc2ccc(Cl)cc2Cl)CC1 [Example 3, 1-{4-[4-(2,4-Dichlorobenzyl)piperazin-1-yl]butyl}-4-phenyl-1H-pyrimidin-2-one] | 3.16 | 204 |
| Cc1cn(CCCCN2CCN(Cc3ccc(Cl)cc3Cl)CC2)c(=O)[nH]c1=O [Example 1, 1-{4-[4-(2,4-Dichlorobenzyl)piperazin-1-yl]butyl}-5-methyl-1H-pyrimidine-2,4-dione] | 8.9 | 98 |
| O=c1[nH]c(=O)n(CCCCN2CCN(Cc3ccc(Cl)cc3Cl)CC2)cc1F [Example 5, 1-{4-[4-(2,4-Dichlorobenzyl)piperazin-1-yl]butyl}-5-fluoro-1H-pyrimidine-2,4-dione] | 10.6 | 99 |
| Cc1cn(CCCCN2CCN(Cc3ccc(Cl)c(Cl)c3)CC2)c(=O)[nH]c1=O [Example 10, 1-{4-[4-(3,4-Dichlorobenzyl)piperazin-1-yl]butyl}-5-methyl-1H-pyrimidine-2,4-dione] | 18.1 | 51 |
| O=c1ccn(CCCCN2CCN(Cc3ccc(Cl)cc3Cl)CC2)c(=O)[nH]1 [Example 2, 1-{4-[4-(2,4-Dichlorobenzyl)piperazin-1-yl]butyl}-1H-pyrimidine-2,4-dione] | 4.6 | 94 |
| Cc1ccn(CCCCN2CCN(Cc3ccc(Cl)cc3Cl)CC2)c(=O)n1 [Example 4, 1-{4-[4-(2,4-Dichlorobenzyl)piperazin-1-yl]butyl}-4-methyl-1H-pyrimidin-2-one] | 17 | 31 |
| Cc1cn(CCCCN2CCN(Cc3ccc(F)cc3Cl)CC2)c(=O)[nH]c1=O [Example 11, 1-{4-[4-(2-Chloro-4-fluorobenzyl)piperazin-1-yl]butyl}-5-methyl-1H-pyrimidine-2,4-dione] | 22.3 | 48 |
